Values quoted from earlier work as cited in patent US20100322881A1, “UVB FILTER BASED ON ASCORBIC ACID DERIVATIVES” (MERCK PATENT GESELLSCHAFT, priority 2008, published 2010).

Tested on: prolyl-4-hydroxylase
Conditions: literature statement; for supporting the activity of the enzyme prolyl-4-hydroxylase: Biochem. J. 1994, 300, 75-79

Compound	supporting the activity of the enzyme prolyl-4-hydroxylase	affinity to the enzyme (compared with the monosubstituted compound)
CC(=O)Oc1ccccc1C(=O)OC[C@H](O)[C@H]1OC(=O)C(O)=C1O [O^6-(2-acetoxybenzoyl) L-ascorbate]	capable of supporting the activity	
CC(=O)Oc1ccccc1C(=O)OC[C@H](OC(=O)c1ccccc1OC(C)=O)[C@H]1OC(=O)C(O)=C1O [O^5O^6-bis(2-acetoxybenzoyl) L-ascorbate]	capable of supporting the activity	lower affinity
